{"source": "patent US12509421B2", "about": "“Preparation and application of deuterated 4-phenyl-4-piperidinols” (priority 2022, dated 2025)", "key": {"[1]": {"experiment": "Metabolic stability in liver microsomes, human", "details": "human, microsomes, pH 7.4", "experimental": "(§1) The solution B is slowly dropped into solution A, and the pH is adjusted to 7.40±0.05.\n(§2) • Control drug: 4 μL Verapamil solution (10 mM) is added with 96 μL DMSO and diluted to 400 μM; • Compound to be tested: 4 μL compound to be tested (10 mM) is added with 96 μL normal saline and diluted to 400 μM.\n(§3) The microsomes are stored in the refrigerator at −80° C., thawed at room temperature after being taken out, and mixed gently.\n(§4) […] PBS (100 mm, pH=7.4) solution is added to the negative sample. The solution is put into water bath at 37° C. and pre-incubated for 10 minutes; • B) After incubation, 2 μL reference drug or compound to be tested (400 μM) are added into each well to start the reaction."}, "[2]": {"experiment": "Metabolic stability in liver microsomes, dog", "details": "dog, microsomes, pH 7.4", "experimental": "as §1, §2, §3, §4"}, "[3]": {"experiment": "Metabolic stability in liver microsomes, rat", "details": "rat, microsomes, pH 7.4", "experimental": "as §1, §2, §3, §4"}, "[4]": {"experiment": "Metabolic stability in liver microsomes, mouse", "details": "mouse, microsomes, pH 7.4", "experimental": "as §1, §2, §3, §4"}, "[5]": {"molecular_target": "T1, hERG potassium channel (Homo sapiens, UniProt Q12809)", "T1 sequence (Q12809 whole entry)": "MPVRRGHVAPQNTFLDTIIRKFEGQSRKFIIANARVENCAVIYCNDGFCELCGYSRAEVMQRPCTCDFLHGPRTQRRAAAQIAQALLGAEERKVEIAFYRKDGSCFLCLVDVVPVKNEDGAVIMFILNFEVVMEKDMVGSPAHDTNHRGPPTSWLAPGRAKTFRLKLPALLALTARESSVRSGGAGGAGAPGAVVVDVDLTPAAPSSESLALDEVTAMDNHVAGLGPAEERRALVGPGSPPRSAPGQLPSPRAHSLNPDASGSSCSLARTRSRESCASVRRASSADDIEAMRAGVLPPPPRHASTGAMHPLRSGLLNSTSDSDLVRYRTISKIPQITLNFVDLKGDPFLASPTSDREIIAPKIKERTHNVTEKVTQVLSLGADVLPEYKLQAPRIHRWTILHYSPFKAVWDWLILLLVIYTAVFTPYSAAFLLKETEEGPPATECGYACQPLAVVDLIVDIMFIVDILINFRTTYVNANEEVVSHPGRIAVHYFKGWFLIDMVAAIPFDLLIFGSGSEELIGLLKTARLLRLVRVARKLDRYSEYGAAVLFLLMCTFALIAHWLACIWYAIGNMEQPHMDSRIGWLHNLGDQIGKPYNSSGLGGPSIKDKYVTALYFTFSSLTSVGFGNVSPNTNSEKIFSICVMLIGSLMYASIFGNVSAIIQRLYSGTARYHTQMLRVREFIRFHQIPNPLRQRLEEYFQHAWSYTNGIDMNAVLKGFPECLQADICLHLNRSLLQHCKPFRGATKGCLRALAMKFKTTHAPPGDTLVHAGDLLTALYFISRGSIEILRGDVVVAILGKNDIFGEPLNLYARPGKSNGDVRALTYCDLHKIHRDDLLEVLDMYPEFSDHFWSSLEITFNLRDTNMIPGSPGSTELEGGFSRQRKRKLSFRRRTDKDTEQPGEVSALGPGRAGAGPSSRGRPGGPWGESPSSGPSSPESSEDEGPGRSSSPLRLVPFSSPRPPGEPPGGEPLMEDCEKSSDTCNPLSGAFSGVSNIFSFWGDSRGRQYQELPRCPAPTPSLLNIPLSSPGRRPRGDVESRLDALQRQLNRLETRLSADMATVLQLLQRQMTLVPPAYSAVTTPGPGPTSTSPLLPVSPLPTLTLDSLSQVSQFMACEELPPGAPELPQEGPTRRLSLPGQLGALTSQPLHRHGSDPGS", "details": "read-out: hERG IC50; J Med Chem.2013 24; 56 (20): 8019-31; cited from earlier work"}, "[6]": {"molecular_target": "T1, hERG potassium channel", "experiment": "hERG potassium channel whole-cell patch clamp (HEK293)", "assay_type": "cell-based", "set-up": "expressed in transfected cells; host or cells: HEK293 cell line", "source_text": "The rapidly activated potassium channel encoded by human ether-a-go-go-related gene (hERG) is an important ion channel involved in the formation of phase 3 repolarization of myocardial action potential. […] Drug-induced delayed ventricular repolarization may cause fatal arrhythmia-torsade de pointes in some cases. According to statistics, about 25-40% of the lead compounds show different degrees of hERG-related toxicity, and many drugs are withdrawn from the market because they may lead to the risk of QT interval extension. At present, National Medical Products Administration also requires hERG/IKr safety evaluation data before clinical trial application (IND) of new drugs under study. • 1. Whole-cell patch clamp technique is used to study the inhibitory effect of compounds on hERG potassium channels: • 1) the compound to be tested is stored with physiological saline prepared into 10 mM liquid. The test stock solution is diluted with physiological saline into 3 mM, 1 mM and 0.3 mM diluents in turn. […] The old culture medium removed and is washed once with PBS, then added with 1 mL TrypLE™ Express solution and incubated at 37° C. for about 0.5 minutes. When the cells are detached from the bottom of the dish, about 5 ml complete medium preheated is added at 37° C. The cell suspension is gently blown with a straw to separate the aggregated cells. The cell suspension is transferred to a sterile centrifuge tube and centrifuged at 1000 rpm for 5 minutes to collect cells. […] The clamping voltage is depolarized from −80 mV to −50 mV for 0.5 seconds (as leakage current detection), then stepped to 30 mV for 2.5 seconds, and then quickly recovered to −50 mV for 4 seconds, which can excite the tail current of hERG channel. Data are collected repeatedly every 10s to observe the effect of drugs on hERG tail current. 0.5 seconds-50 mV stimulation is used as leakage current detection. The test data are collected by IPA amplifier (Sutter Instrument) and stored in SutterPatch software.\nCapillary glass tube is drawn into recording electrode by microelectrode drawing instrument. Under the inverted microscope, the microelectrode manipulator is operated to contact the recording electrode with the cell, and negative pressure suction is given to form a GΩ seal. After the GΩ seal is formed, rapid capacitance compensation is carried out, and then negative pressure is continuously applied to break the cell membrane, forming a whole cell recording mode. Then the slow capacitance is compensated and the film capacitance and series resistance are recorded. No leakage compensation is given.\nWhen the hERG current recorded in the whole cell is stable, the drug is administered, and the next concentration is detected after each drug concentration acts for 5 minutes (or the current is stable), and multiple concentrations are detected for each test compound. The cover glass covered with cells is placed in the recording bath in an inverted microscope, and the test compound and the external liquid containing no compound flowed through the recording bath from low concentration to high concentration by gravity perfusion method, so as to act on the cells, and liquid exchange is carried out by using a vacuum pump during recording. The current detected by each cell in the external fluid without compounds is used as its own control group.\nAt least two cells are used to detect each concentration independently and repeatedly twice. All electrophysiological tests are conducted at room temperature.\nFirstly, the current after each drug concentration and the blank control current are standardized\n[formula] followed by the calculation of the inhibition rate\n[formula] corresponding to each drug concentration, the average and standard deviation for each concentration, and the semi-inhibition concentration of each compound with the following equation: […]\nThe dose-dependent effect is nonlinear fitted by the above equation, and IC50 is semi-inhibitory concentration."}, "[7]": {"molecular_target": "CYP 2C9 (Homo sapiens, UniProt P11712)", "sequence (P11712 whole entry)": "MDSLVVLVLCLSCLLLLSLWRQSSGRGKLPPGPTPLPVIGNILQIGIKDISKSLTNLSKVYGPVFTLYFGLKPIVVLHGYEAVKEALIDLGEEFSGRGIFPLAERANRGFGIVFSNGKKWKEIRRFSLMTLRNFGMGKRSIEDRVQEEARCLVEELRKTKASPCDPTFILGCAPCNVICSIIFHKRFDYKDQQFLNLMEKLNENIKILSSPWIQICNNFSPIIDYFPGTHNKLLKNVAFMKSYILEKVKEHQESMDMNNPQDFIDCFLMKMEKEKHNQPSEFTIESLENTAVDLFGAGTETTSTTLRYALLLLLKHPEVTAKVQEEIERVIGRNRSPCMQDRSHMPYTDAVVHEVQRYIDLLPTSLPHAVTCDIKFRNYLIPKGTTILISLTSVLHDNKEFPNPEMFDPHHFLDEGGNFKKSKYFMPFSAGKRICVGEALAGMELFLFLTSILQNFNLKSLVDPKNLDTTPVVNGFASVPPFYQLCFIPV", "experiment": "Inhibition of cytochrome P450 enzyme in human liver microsomes, CYP 2C9"}, "[8]": {"molecular_target": "CYP 2D6 (Homo sapiens, UniProt P10635)", "sequence (P10635 whole entry)": "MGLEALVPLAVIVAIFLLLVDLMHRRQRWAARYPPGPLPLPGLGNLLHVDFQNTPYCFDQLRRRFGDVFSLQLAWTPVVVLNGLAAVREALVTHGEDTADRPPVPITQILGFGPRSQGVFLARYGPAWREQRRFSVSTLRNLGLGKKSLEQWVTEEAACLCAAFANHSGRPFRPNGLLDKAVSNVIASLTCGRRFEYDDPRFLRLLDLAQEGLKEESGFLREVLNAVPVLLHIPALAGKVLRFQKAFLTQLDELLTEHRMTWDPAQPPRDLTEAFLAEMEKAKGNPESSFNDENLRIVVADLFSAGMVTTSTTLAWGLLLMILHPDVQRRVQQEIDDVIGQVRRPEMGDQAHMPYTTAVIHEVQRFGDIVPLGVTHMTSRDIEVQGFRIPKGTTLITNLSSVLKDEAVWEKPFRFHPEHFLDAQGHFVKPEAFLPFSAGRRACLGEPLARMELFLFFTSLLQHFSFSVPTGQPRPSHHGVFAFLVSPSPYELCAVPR", "experiment": "Inhibition of cytochrome P450 enzyme in human liver microsomes, CYP 2D6"}, "[9]": {"molecular_target": "CYP 2C19 (Homo sapiens, UniProt P33261)", "sequence (P33261 whole entry)": "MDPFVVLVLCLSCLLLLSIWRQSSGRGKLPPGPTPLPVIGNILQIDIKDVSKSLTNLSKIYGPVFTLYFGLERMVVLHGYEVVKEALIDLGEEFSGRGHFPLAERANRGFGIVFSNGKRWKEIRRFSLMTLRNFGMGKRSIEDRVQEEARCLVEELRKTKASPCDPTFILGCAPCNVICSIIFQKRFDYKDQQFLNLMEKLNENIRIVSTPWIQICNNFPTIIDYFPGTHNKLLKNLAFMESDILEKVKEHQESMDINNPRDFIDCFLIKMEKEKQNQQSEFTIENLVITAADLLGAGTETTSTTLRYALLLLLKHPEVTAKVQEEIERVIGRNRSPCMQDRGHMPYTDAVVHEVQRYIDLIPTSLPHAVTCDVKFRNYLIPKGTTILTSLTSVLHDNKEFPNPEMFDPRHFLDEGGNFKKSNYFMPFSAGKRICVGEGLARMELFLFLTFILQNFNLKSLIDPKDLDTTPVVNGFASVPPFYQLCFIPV", "experiment": "Inhibition of cytochrome P450 enzyme in human liver microsomes, CYP 2C19"}}, "note": "Entries after “also recorded” stand apart in the source; their conditions may differ. Like-named read-outs stand apart in the source and are kept apart here."}
{"compound": "COc1ccsc1CNCC[C@@]1(c2ccccn2)CCOC2(CCCC2)C1", "note": "[TRV-130, reference compound]", "values": [{"measurement": "half-life at 2 μM", "setting": "[1]", "result": 4.08, "unit": "min"}, {"measurement": "microsomal CLint at 2 μM", "setting": "[1]", "result": 340, "unit": "µL/min/mg"}, {"measurement": "half-life at 2 μM", "setting": "[2]", "result": 2.22, "unit": "min"}, {"measurement": "microsomal CLint at 2 μM", "setting": "[2]", "result": 624, "unit": "µL/min/mg"}, {"measurement": "half-life at 2 μM", "setting": "[3]", "result": 1.61, "unit": "min"}, {"measurement": "microsomal CLint at 2 μM", "setting": "[3]", "result": 863, "unit": "µL/min/mg"}, {"measurement": "half-life at 2 μM", "setting": "[4]", "result": 1.67, "unit": "min"}, {"measurement": "microsomal CLint at 2 μM", "setting": "[4]", "result": 831, "unit": "µL/min/mg"}, {"measurement": "IC50", "setting": "[5]", "result": 6.2, "unit": "µM"}, {"measurement": "IC50", "setting": "[6]", "result": 6.17, "unit": "µM"}, {"measurement": "hERG inhibition grade", "setting": "[6]", "result": "moderate inhibitory effects on hERG; also recorded: μM(Moderate intensity inhibition)"}, {"measurement": "IC50", "setting": "[7]", "result": "> 50", "unit": "µM"}, {"measurement": "IC50", "setting": "[8]", "result": 7.17, "unit": "µM"}, {"measurement": "IC50", "setting": "[9]", "result": "> 50", "unit": "µM"}]}
